Literature values, collected in patent US20140088145A1 (Teva Pharmaceutical Industries, Ltd., priority 2012, published 2014).

Legend:
[1] = system: Huntington's disease patients; details: twice-daily doses of 45 mg over 12 weeks
[2] = system: patients with HD
[3] = system: Huntington's disease patients; details: 45 mg daily or 90 mg daily for 6 months
[4] = in vivo

SMILES	effect on total motor function [1]	symptomatic relief incl. hand movements, gait and balance [2]	tertiary endpoint UHDRS-TMS (changes in motor function) and individual items within the mMS (gait, dysarthria) [3]	absolute bioavailability [4]
CCCN1CCC(c2cccc(S(C)(=O)=O)c2)CC1 [pridopidine, 4-[3-(methylsulfonyl)phenyl]-1-propyl-piperidine]	significant effect on total motor function	significant symptomatic relief	statistically significant effect of treatment	–
C#CCN[C@@H]1CCc2ccccc21 [rasagiline, R(+)-N-propargyl-l-aminoindan]	–	–	–	about 36%
